Data: patent publication US11617730B2, “Pharmaceutical formulation for administering paracetamol by buccal/gingival route” (Unither Pharmaceuticals, priority 2017, dated 2023)

Key:
[1] = DOSY 1H-NMR measurement of diffusion coefficients and hydrodynamic radius (Stokes-Einstein); assay type: physicochemical; conditions: in ethanol; reference samples, 25° C.
From the text: For the purposes of the present invention, “hydrodynamic radius”, or RH, means the radius of a solute in solution, said solute being assumed to be spherical, as defined by the following Stokes-Einstein relation [Edward, J. T. (1970) J. Chem. Educ. 47, 261; Einstein, A. (1905) Annalen Der Physik 17, 549-560; Einstein, A. (1906) Annalen Der Physik 19, 371-381]:
[formula] • D is the diffusion coefficient of the solute in the solvent (expressed in m^2·s^−1), • kB is the Boltzmann constant, and is kB=1.3806·10^−23 J·K^−1, • T is the temperature of the medium (expressed in K), • ρ is the viscosity of the medium (expressed in Pa·s, or equivalent in kg·s^−1·m^−1), and • RH is expressed in m. […]
The sizes of molecules in solution can be estimated by liquid NMR using so-called diffusion experiments to measure the diffusion coefficients of species in solution. The experiment is performed by applying a magnetic field gradient in a given direction, the direction in which the diffusion of particles is measured. […]
This table also includes viscosity values obtained from the literature [Khattab, I. S., Bandarkar, F., Fakhree, M. A. A., and Jouyban, A. (2012) Korean J. Chem. Eng. 29, 812-817], the mole fraction of ethanol and the hydrodynamic radius calculated from the Stokes-Einstein equation. The accuracy of the value thus calculated is estimated at ±0.1 Å. […]

[2] = Stability / pre-stability studies of paracetamol in hydroalcoholic solution; assay type: physicochemical

CC(=O)Nc1ccc(O)cc1 [paracetamol]
RH of paracetamol [1]: 4.2 Å | Coloration in pre-stability studies ([2]; 6 months at 40° C., concentration greater than 115 mg/mL): appearance of pink coloration | Recrystallization in stability studies ([2]; concentration too high, typically above 125 mg/mL): recrystallizes over time
